{"source": "paper PMC5439949", "about": "“Structural features of PhoX, one of the phosphate-binding proteins from Pho regulon of Xanthomonas citri” (PLoS ONE, 2017)", "key": {"[1]": {"target": "PstS (Xanthomonas citri, UniProt A0AAI8ESD8)", "sequence (A0AAI8ESD8 entry or part of it)": "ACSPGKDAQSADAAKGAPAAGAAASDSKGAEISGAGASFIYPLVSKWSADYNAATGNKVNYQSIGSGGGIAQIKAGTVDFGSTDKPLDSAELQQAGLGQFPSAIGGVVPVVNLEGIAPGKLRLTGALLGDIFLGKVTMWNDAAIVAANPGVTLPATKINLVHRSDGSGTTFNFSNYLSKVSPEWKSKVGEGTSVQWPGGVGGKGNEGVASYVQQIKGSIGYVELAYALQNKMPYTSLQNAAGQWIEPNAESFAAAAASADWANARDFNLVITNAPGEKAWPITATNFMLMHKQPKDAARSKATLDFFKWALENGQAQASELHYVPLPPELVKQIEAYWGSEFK", "experiment": "thermal unfolding by CD at […] nm", "type": "binding", "conditions": "Tm without to with 30 μM NaH2PO4; 2 μM protein, 10 mM Tris-HCl pH 8.0, 20-95 °C"}, "[2]": {"target": "PhoX (Xanthomonas citri, UniProt A0AAI8ERC0)", "sequence (A0AAI8ERC0 entry or part of it)": "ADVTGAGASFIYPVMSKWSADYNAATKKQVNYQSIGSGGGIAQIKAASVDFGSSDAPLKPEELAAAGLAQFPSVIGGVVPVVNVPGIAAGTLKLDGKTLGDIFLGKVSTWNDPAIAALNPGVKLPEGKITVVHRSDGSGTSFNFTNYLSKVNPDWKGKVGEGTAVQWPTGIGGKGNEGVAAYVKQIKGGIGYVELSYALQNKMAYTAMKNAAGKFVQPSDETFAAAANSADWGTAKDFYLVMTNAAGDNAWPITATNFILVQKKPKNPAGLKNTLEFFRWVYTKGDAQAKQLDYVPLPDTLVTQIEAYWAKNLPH", "experiment": "thermal unfolding by CD at […] nm", "type": "binding", "conditions": "Tm without to with 30 μM NaH2PO4; 2 μM protein, 10 mM Tris-HCl pH 8.0, 20-95 °C"}}}
{"molecule": "O=P(O)(O)O", "note": "[phosphate]", "values": [{"measurement": "Tm", "setting": "[1]", "result": "71 to 78", "unit": "°C"}, {"measurement": "Tm", "setting": "[2]", "result": "64 to 77", "unit": "°C"}]}
